25 molecules from patent US10508104B2, “6-hydroxy-5-(phenyl/heteroarylsulfonyl)pyrimidin-4(1H)-one as APJ agonists” (Bristol-Myers Squibb Company, priority 2016, dated 2019) can be followed below.

As a reminder, the EC50 is the concentration that produces a half-maximal response.

In this experiment the target is human APJ receptor (Homo sapiens (Human), UniProt P35414). Put plainly: Intracellular cAMP accumulation assay (APJ hcAMP, HTRF). The settings on record: read-out: Human APJ cAMP EC50 Potency range. The format is cell-based. As to the method: Intracellular cAMP Accumulation Assay
HEK293 cells stably expressing human APJ receptor were used to assess the activity of compounds. Cultured cells were detached and resuspended in the cAMP Homogeneous Time-Resolved Fluorescence (HTRF) assay buffer (Cisbio cat; #62AM4PEJ). The assay was performed in 384-well assay plates (Perkin-Elmer; cat #6008289) according to assay protocol provided by the manufacturer. Serial dilutions of a compound together with assay buffer containing […] and 2 μM forskolin were added to each well containing 5,000 cells and incubated for 30 minutes at room temperature. Subsequently, cAMP D2 reagent was added in the lysis buffer followed by the EuK antibody (Cisbio; cat #62AM4PEJ) and incubated for 60 min. The fluorescence emission ratio was measured using fluorometer. The intracellular cAMP concentrations (compound-stimulated inhibition of forskolin-mediated cAMP production) were calculated by extrapolation from a standard curve using known cAMP concentrations. The EC50 values were obtained by fitting the data to a sigmoidal concentration-response curve with variable slope.
The EC50 value of each compound is presented at the end of the example description.
The biological activity of the exemplified compounds of this invention determined by the assay described above is shown at the end of each example.
A general note: cAMP levels reflect the balance of adenylyl cyclase and phosphodiesterase activity.

[1] abbreviates: human APJ, intracellular cAMP accumulation.
The mark [2] stands for this setting: HEK293 cells stably expressing human APJ receptor, inhibition of forskolin-mediated cAMP production.

Like-named read-outs stand apart in the source and are kept apart here.

Sequence of human APJ receptor (P35414 whole entry): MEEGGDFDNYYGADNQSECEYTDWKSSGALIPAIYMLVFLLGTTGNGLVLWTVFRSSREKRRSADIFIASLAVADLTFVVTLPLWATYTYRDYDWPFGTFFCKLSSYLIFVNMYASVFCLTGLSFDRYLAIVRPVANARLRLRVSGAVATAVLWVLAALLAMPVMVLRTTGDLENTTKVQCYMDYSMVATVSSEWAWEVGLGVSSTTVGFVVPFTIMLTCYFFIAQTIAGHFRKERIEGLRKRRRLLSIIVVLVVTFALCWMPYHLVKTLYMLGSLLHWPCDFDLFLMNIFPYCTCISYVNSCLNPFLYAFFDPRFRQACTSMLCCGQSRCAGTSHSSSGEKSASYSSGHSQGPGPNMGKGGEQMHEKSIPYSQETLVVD

For “5-(4- bromobenzenesulfonyl)- 2-butyl-3- [cyclopropyl(phenyl) methyl]-6-hydroxy-3,4- dihydropyrimidin-4-one [Example 186]”, the EC50 under setting [1] is 10 to 100 nM.

Regarding “5-(4- bromobenzenesulfonyl)- 2-butyl-3-[(1S)-1-(3- chlorophenyl)propyl]-6- hydroxy-3,4- dihydropyrimidin-4-one [Example 188]”, under setting [1], the EC50 fell in the range of 10 to 100 nM.

As for `COC[C@@H](c1ccccc1)n1c(C2CCCO2)nc(=O)c(S(=O)(=O)c2ccc(-c3ccnc(F)c3C)cc2)c1O` (mixture of isomers) [Example 353, 5-[4-(2-fluoro-3-methylpyridin-4-yl)benzenesulfonyl]-6-hydroxy-1-[(1R)-2-methoxy-1-phenylethyl]-2-(oxolan-2-yl)-1,4-dihydropyrimidin-4-one], the EC50 (human APJ, cAMP accumulation) is 0.01 to 10 nM.

For the molecule `COC[C@@H](c1ccccc1)n1c(C2CCCO2)nc(=O)c(S(=O)(=O)c2ccc(-c3ccc(F)nc3)cc2)c1O` (mixture of isomers) [Example 354, 5-[4-(6-fluoropyridin-3-yl)benzenesulfonyl]-6-hydroxy-1-[(1R)-2-methoxy-1-phenylethyl]-2-(oxolan-2-yl)-1,4-dihydropyrimidin-4-one], the EC50 (human APJ, cAMP accumulation) lay within 0.01 to 10 nM.

In the case of `COC[C@@H](c1ccccc1)n1c(C2CCCO2)nc(=O)c(S(=O)(=O)c2ccc(-c3ccc(F)nc3C)cc2)c1O` (mixture of isomers) [Example 355, 5-[4-(6-fluoro-2-methylpyridin-3-yl)benzenesulfonyl]-6-hydroxy-1-[(1R)-2-methoxy-1-phenylethyl]-2-(oxolan-2-yl)-1,4-dihydropyrimidin-4-one], the EC50 (human APJ, cAMP accumulation) was 0.01 to 10 nM.

As for `COC[C@@H](c1ccccc1)n1c(C2CCCO2)nc(=O)c(S(=O)(=O)c2ccc(-c3ccncc3C)cc2)c1O` (single isomer, unassigned) [Example 350], the EC50 (human APJ, cAMP accumulation) is 0.01 to 10 nM.

On to `COC[C@@H](c1ccccc1)n1c(C2CCCO2)nc(=O)c(S(=O)(=O)c2ccc(-c3ccncc3C)cc2)c1O` (single isomer, unassigned) [Example 351], for which the EC50 (human APJ, cAMP accumulation) lay in the range of 0.01 to 10 nM.

For `COC[C@@H](c1ccccc1)n1c(C2CCCO2)nc(=O)c(S(=O)(=O)c2ccc(-c3ccncc3C)cc2)c1O` (single isomer, unassigned) [Example 352], where the note is “human APJ, cAMP accumulation”, the 50% effective concentration (EC50) is 0.01 to 10 nM.

Consider `COC[C@@H](c1ccccc1)n1c(C2CCCO2)nc(=O)c(S(=O)(=O)c2ccc(-c3ccc(F)nc3C)cc2)c1O` (single isomer, unassigned) [Example 356], for which the EC50 (human APJ, cAMP accumulation) fell in the range of 0.01 to 10 nM.

As for `COC[C@@H](c1ccccc1)n1c(C2CCCO2)nc(=O)c(S(=O)(=O)c2ccc(-c3ccc(F)nc3C)cc2)c1O` (single isomer, unassigned) [Example 357], the EC50 (human APJ, cAMP accumulation) lay in the range of 0.01 to 10 nM.

In the case of `COC[C@@H](c1ccccc1)n1c(C2CCCO2)nc(=O)c(S(=O)(=O)c2ccc(-c3ccc(F)nc3)cc2)c1O` (single isomer, unassigned) [Example 358], under “human APJ, cAMP accumulation”, the EC50 lay in the range of 0.01 to 10 nM.

With `COC[C@@H](c1ccccc1)n1c(C2CCCO2)nc(=O)c(S(=O)(=O)c2ccc(-c3ccc(F)nc3)cc2)c1O` (single isomer, unassigned) [Example 359], the EC50 (human APJ, cAMP accumulation) lay in the range of 0.01 to 10 nM.

For `CCCCc1nc(=O)c(S(=O)(=O)c2ccc(Br)cc2)c(O)n1-c1c(OC)cccc1OC` [Example 1, 5-((4-Bromophenyl)sulfonyl)-2-butyl-1-(2,6-dimethoxyphenyl)-6-hydroxypyrimidin-4(1H)-one], under setting [2], the EC50 is 0.01 to 10 nM.

On to `CCCCc1nc(=O)c(S(=O)(=O)c2ccccc2)c(O)n1-c1c(OC)cccc1OC` [Example 2, 5-(benzenesulfonyl)-2-butyl-1-(2,6-dimethoxyphenyl)-6-hydroxy-1,4-dihydropyrimidin-4-one], for which the concentration for a half-maximal effect (EC50) under setting [1] was in the range of 0.01 to 10 nM.

Turning to `CCCCc1nc(=O)c(S(=O)(=O)c2ccc(Cl)cc2)c(O)n1-c1c(OC)cccc1OC` [Example 3, 2-butyl-5-(4-chlorobenzenesulfonyl)-1-(2,6-dimethoxyphenyl)-6-hydroxy-1,4-dihydropyrimidin-4-one], the half-maximal effective concentration (EC50) under setting [1] fell in the range of 0.01 to 10 nM.

Take `CCCCc1nc(=O)c(S(=O)(=O)c2ccc(F)cc2)c(O)n1-c1c(OC)cccc1OC` [Example 4, 2-butyl-1-(2,6-dimethoxyphenyl)-5-(4-fluorobenzenesulfonyl)-6-hydroxy-1,4-dihydropyrimidin-4-one]: the EC50 under setting [1] is 0.01 to 10 nM.

As for `CCCCc1nc(=O)c(S(=O)(=O)Cc2ccccc2)c(O)n1-c1c(OC)cccc1OC` [Example 5, 2-butyl-1-(2,6-dimethoxyphenyl)-6-hydroxy-5-phenylmethanesulfonyl-1,4-dihydropyrimidin-4-one], the EC50 under setting [1] was in the range of 10 to 100 nM.

Take `CCCCc1nc(=O)c(S(=O)(=O)c2ccc(C(F)(F)F)cn2)c(O)n1-c1c(OC)cccc1OC` [Example 6, 2-butyl-1-(2,6-dimethoxyphenyl)-6-hydroxy-5-{[5-(trifluoromethyl)pyridin-2-yl]sulfonyl}-1,4-dihydropyrimidin-4-one]: under setting [1], the EC50 was 0.01 to 10 nM.

`CCCCc1nc(=O)c(S(=O)(=O)c2ccc(-c3ccc(F)cc3)cc2)c(O)n1-c1c(OC)cccc1OC` [Example 7, 2-Butyl-1-(2,6-dimethoxyphenyl)-5-((4′-fluoro-[1,1′-biphenyl]-4-yl)sulfonyl)-6-hydroxypyrimidin-4(1H)-one]: under setting [2], the EC50 was 0.01 to 10 nM.

Turning to `CCCCc1nc(=O)c(S(=O)(=O)c2ccc(-c3ccccc3)cc2)c(O)n1-c1c(OC)cccc1OC` [Example 8, 2-butyl-1-(2,6-dimethoxyphenyl)-6-hydroxy-5-(4-phenylbenzenesulfonyl)-1,4-dihydropyrimidin-4-one], the EC50 under setting [1] fell in the range of 0.01 to 10 nM.

With `CCCCc1nc(=O)c(S(=O)(=O)c2ccc(-c3cn(C)nc3C(F)(F)F)cc2)c(O)n1-c1c(OC)cccc1OC` [Example 9, 2-butyl-1-(2,6-dimethoxyphenyl)-6-hydroxy-5-{4-[1-methyl-3-(trifluoromethyl)-1H-pyrazol-4-yl]benzenesulfonyl}-1,4-dihydropyrimidin-4-one], the concentration giving a half-maximal response (EC50) under setting [1] fell in the range of 0.01 to 10 nM.

`CCCCc1nc(=O)c(S(=O)(=O)c2ccc(-c3cnn(C(C)C)c3)cc2)c(O)n1-c1c(OC)cccc1OC` [Example 10, 2-butyl-1-(2,6-dimethoxyphenyl)-6-hydroxy-5-{4-[1-(propan-2-yl)-1H-pyrazol-4-yl]benzenesulfonyl}-1,4-dihydropyrimidin-4-one]: the EC50 under setting [1] was in the range of 0.01 to 10 nM.

`COc1cccc(OC)c1-n1c(CCC(C)C)nc(=O)c(S(=O)(=O)c2ccc(-c3ccccc3)cc2)c1O` [Example 11, 1-(2,6-dimethoxyphenyl)-6-hydroxy-2-(3-methylbutyl)-5-(4-phenylbenzenesulfonyl)-1,4-dihydropyrimidin-4-one]: under setting [1], the EC50 was 0.01 to 10 nM.

For the molecule `COc1cccc(OC)c1-n1c(CCC(C)C)nc(=O)c(S(=O)(=O)c2ccc(-c3ccc(F)cc3)cc2)c1O` [Example 12, 1-(2,6-dimethoxyphenyl)-5-[4-(4-fluorophenyl)benzene-sulfonyl]-6-hydroxy-2-(3-methylbutyl)-1,4-dihydropyrimidin-4-one], the EC50 under setting [1] is 0.01 to 10 nM.

As to `COc1cccc(OC)c1-n1c(CCC(C)C)nc(=O)c(S(=O)(=O)c2ccc(-c3ccc(Cl)cc3)cc2)c1O` [Example 14, 5-[4-(4-chlorophenyl)benzene-sulfonyl]-1-(2,6-dimethoxyphenyl)-6-hydroxy-2-(3-methylbutyl)-1,4-dihydropyrimidin-4-one], the EC50 under setting [1] lay in the range of 0.01 to 10 nM.
